Source: publication PMC2928300, “Transcriptional Regulation of Human and Rat Hepatic Lipid Metabolism by the Grapefruit Flavonoid Naringenin: Role of PPARα, PPARγ and LXRα” (PLoS ONE, 2010)
Blank lines part the entries; values can stand above or below the molecule they belong to.

How the values were obtained:
LXRα [1] = target: T1, LXRα (Homo sapiens, UniProt Q13133); assay: LanthaScreen TR-FRET coactivator recruitment, purified LBD (EC80 measured in this assay); format: binding
T1 construct: gene NR1H3
T1 sequence (Q13133 209-447 limits assumed): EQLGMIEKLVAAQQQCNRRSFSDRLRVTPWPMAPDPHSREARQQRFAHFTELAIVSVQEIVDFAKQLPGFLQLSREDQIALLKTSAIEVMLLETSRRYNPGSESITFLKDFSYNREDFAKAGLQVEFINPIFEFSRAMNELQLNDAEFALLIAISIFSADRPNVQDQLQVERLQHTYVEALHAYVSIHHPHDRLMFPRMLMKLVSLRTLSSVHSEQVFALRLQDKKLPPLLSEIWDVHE

LXRα [2] = target: T1, LXRα; assay: LanthaScreen TR-FRET coactivator recruitment, agonist and antagonist modes, purified LBD; supported by GAL4-LBD reporter; format: biochemical
PPARγ = target: T2, PPARγ (Homo sapiens, UniProt P37231); assay: GAL4-PPARγ LBD luciferase reporter in HG5LN (HeLa) cells; format: cell-based; details: read-out: % activation at 80 μM
T2 construct: gene PPARG; GAL4(1–147)-PPARγ LBD fusion
T2 sequence (P37231 231-505 limits assumed): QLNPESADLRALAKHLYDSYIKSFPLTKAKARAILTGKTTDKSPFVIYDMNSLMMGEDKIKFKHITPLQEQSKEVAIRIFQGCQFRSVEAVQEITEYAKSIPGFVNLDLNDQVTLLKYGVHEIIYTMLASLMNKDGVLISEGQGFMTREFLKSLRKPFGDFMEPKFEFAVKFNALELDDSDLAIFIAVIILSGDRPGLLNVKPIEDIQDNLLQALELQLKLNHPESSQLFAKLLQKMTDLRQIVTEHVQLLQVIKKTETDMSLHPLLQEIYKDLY

[3] = target: recombinant LXRα ligand-binding domain, GST-tagged; assay: FRET or BRET; LanthaScreen TR-FRET coactivator assay, cell-free, antagonist mode: GST-LXRα LBD, fluorescein Trap220 peptide, TO901317 at its EC80 in all wells (250 nM by methods and legend, 1 µM by the results text), increasing naringenin
[4] = target: recombinant LXRα ligand-binding domain, GST-tagged; assay: FRET or BRET; LanthaScreen TR-FRET coactivator assay, cell-free, agonist mode: GST-LXRα LBD labelled by terbium anti-GST antibody, fluorescein Trap220 peptide, increasing naringenin; percent activation compared to maximal activation of positive control (TO901317)

Molecule: O=S(=O)(c1ccccc1)N(CC(F)(F)F)c1ccc(C(O)(C(F)(F)F)C(F)(F)F)cc1 [TO901317]
LanthaScreen TR-FRET coactivator recruitment, purified LBD (EC80 measured in thi) (LXRα [1]): 0.25 µM

Molecule: O=C1C[C@@H](c2ccc(O)cc2)Oc2cc(O)cc(O)c21 [naringenin]
% activation (LXRα [2]): 38.0±2.8 % activation | Emax at 80 µM (PPARγ): 57 ± 0.3%

percent inhibition of binding by 133 µM naringenin in the presence of 1 µM TO901317 [3]: 11.6% | percent inhibition of the TR-FRET signal by 133 µM naringenin with 250 nM TO901317 [3]: 15% | percent activation of TR-FRET signal with naringenin, relative to TO901317 [4]: 38%
Molecule: fluorescein-labeled Trap 220/Drip-2 co-activator peptide
